Test system: apomorphine-induced dopaminergic neurotransmission
Assay: BOLD fMRI of neuronal/glial activity in conscious rats pre-treated with an antipsychotic and challenged with apomorphine
Assay type: in vivo, rat
Conditions: for neuronal/glial activity in the anterior thalamic nuclei / neuronal/glial activity in the pituitary gland: antipsychotic pre-treatment i.p. (chlorpromazine, clozapine, olanzapine 5 mg/kg; haloperidol 1 mg/kg)
Text: To image the brain activity of live rats (Charles River Laboratories, Wilmington, Mass.), the rats were anesthetized with 2-3% isoflurane (Abbott Laboratories, North Chicago, Ill.). Nine (9) rats were used for each experimental condition. A topical anesthetic of 10% lidocaine gel was applied to the skin and soft tissue around the ear canals and over the bridge of the nose. A plastic semi-circular headpiece with blunted ear supports that fit into the ear canals was positioned over the ears. The head was placed into a cylindrical head holder with the rat's canines secured over a bite bar and ears positioned inside the head holder with adjustable screws fitted into lateral sleeves. An adjustable, receive-only surface coil built into the head holder was pressed firmly on the head and locked into place. The body of the rat was placed into a body restrainer. The body restrainer “floats” down the center of the chassis connecting at the front and rear end-plates and buffered by rubber gaskets. The head piece locks into a mounting post on the front of the chassis. This design isolates all of the body movements from the head restrainer and minimizes motion artifact. Once the rat was positioned in the body holder, a transmit-only volume coil was slid over the head restrainer and locked into position.
When the rats were fully conscious, the restraining unit was placed into a black opaque tube mock scanner with a tape-recording of an MRI pulse sequence. This acclimation protocol lasted for 60 minutes in order to simulate the bore of the magnet and the imaging protocol. This procedure was repeated every other day for four days.
Experiments were conducted in a Bruker Biospec 4.7-T/40-cm horizontal magnet (Oxford Instrument, Oxford, U.K.) equipped with a Biospec Bruker console (Bruker, Billerica, Mass., U.S.A.) and a 20 G/cm magnetic field gradient insert (internal diameter=12 cm) capable of a 120 μs rise time (Bruker). Radiofrequency (RF) signals were sent and received with the dual coil electronics built into the animal restrainer (Ludwig et al., 2004, J. Neurosci. Methods 132(2):125-35). The volume coil for transmitting RF signal features an 8-element microstrip line configuration in conjunction with an outer copper shield. The arch-shaped geometry of the receiving surface coil provides excellent coverage and high signal-to-noise. To prevent mutual coil interference, the volume and surface coils were actively tuned and detuned.
Functional images were acquired using a multi-slice fast spin echo sequence. A single data acquisition included twelve (12), 1.2 mm slices collected in 6 seconds (field of view (FOV) 3.0 cm; data matrix 64×64; repetition time (TR) 1.43 sec, effective echo time (Eff TE) 53.3 msec, echo time (TE) 7 msec; rapid acquisition with relaxation enhancement (RARE) factor 16, number of excitations (NEX) 1). This sequence was repeated 100 times in a 10 minute imaging session, consisting of 5 minutes of baseline data followed by 5 minutes of stimulation data. At the beginning of each imaging session, a high resolution anatomical data set was collected using a RARE pulse sequence (12 slice; 1.2 mm; FOV 3.0 cm; 256×256; TR 2.1 sec; TE 12.4 msec; NEX 6; 7 minute acquisition time).
For each subject, rigid body motion in x-, y- and z-direction was computed with Stimulate software (Strupp, 1996, NeuroImage 3:S607) using center of intensity method. […] A conservative criteria of 120 μm standard deviation of motion in any direction was set as acceptance criteria.

[1] = apomorphine 20 μg/10 μl ICV, BOLD fMRI, conscious rat
[2] = then apomorphine 20 μg/10 μl ICV, BOLD fMRI, conscious rat
[3] = pre-treatment 5 mg/kg i.p., then apomorphine 20 μg/10 μl ICV, BOLD fMRI, conscious rat

| Compound | activation of the anterior thalamic nuclei by apomorphine [1] | activation of the dorsal striatum by apomorphine [1] | activation of the pituitary gland by apomorphine [1] | activation of the mesocorticolimbic dopamine system (reward pathway) by apomorphine (apomorphine alone, 20 μg/10 μl ICV, BOLD fMRI, conscious rat) | change in BOLD signal intensity in the pituitary gland (time course following ICV administration of apomorphine (FIG. 3A)) | change in BOLD signal intensity in the anterior thalamic nuclei (time course following ICV administration of apomorphine (FIG. 3B)) | change in BOLD signal intensity in the dorsal striatum (time course following ICV administration of apomorphine (FIG. 3C)) | neuronal/glial activity in the dorsal striatum (antipsychotic pre-treatment i.p. (chlorpromazine, clozapine, olanzapine 5 mg/kg), then apomorphine 20 μg/10 μl ICV, BOLD fMRI, conscious rat) | neuronal/glial activity in the anterior thalamic nuclei [2] | neuronal/glial activity in the pituitary gland [2] | neuronal/glial activity in the CA1 region of the hippocampus [3] | neuronal/glial activity in the CA3 region of the hippocampus [3] | neuronal/glial activity in the dentate gyms region of the hippocampus [3] | neuronal/glial activity in the subiculum region of the hippocampus [3] | neuronal/glial activity throughout the hippocampus [3] |
| --- | --- | --- | --- | --- | --- | --- | --- | --- | --- | --- | --- | --- | --- | --- | --- |
| CN1CCc2cccc3c2[C@H]1Cc1ccc(O)c(O)c1-3 [apomorphine] | activated | activated | activated | activated | increased | increased | increased | – | – | – | – | – | – | – | – |
| CN(C)CCCN1c2ccccc2Sc2ccc(Cl)cc21 [chlorpromazine] | – | – | – | – | – | – | – | reduced | pronounced reduction | pronounced reduction | significant reduction in neuronal/glial activity | significant reduction in neuronal/glial activity | significant reduction in neuronal/glial activity | significant reduction in neuronal/glial activity | selective reduction in activity |
| O=C(CCCN1CCC(O)(c2ccc(Cl)cc2)CC1)c1ccc(F)cc1 [haloperidol] | – | – | – | – | – | – | – | – | reducing apomorphine-induced neuronal/glial activity | reducing apomorphine-induced neuronal/glial activity | – | – | – | – | – |

Source: patent publication US20110217240A1, “IMAGING NEUROLEPTIC COMPOUNDS” (priority 2008, published 2011)
